ChEMBL document CHEMBL4699524 (Bioorg Med Chem Lett, 2020)

Assays:
[1] = in vitro; conditions: hamster, CHO cells
[2] = Selectivity index, ratio of IC50 for CHO cells to IC50 for antileishmanial activity against Leishmania donovani 1S by resazurin dye based assay; type: toxicity; conditions: hamster, read-out: Ratio IC50
[3] = tested on: Plasmodium falciparum; test: Antiplasmodial activity against chloroquine-resistant Plasmodium falciparum Dd2 by LDH assay; type: functional, organism-based
[4] = tested on: Leishmania major; test: Antileishmanial activity against Leishmania major IR-173 promastigotes assessed as inhibition of parasite growth incubated for 72 hrs by resazurin dye based assay; type: functional, organism-based; conditions: IR-173, 72 h
[5] = tested on: Leishmania donovani; test: Potency index, ratio of artesunate IC50 to test compound IC50 for antileishmanial activity against Leishmania donovani 1S promastigotes incubated for 72 hrs by resazurin dye based assay; type: functional
[6] = tested on: Leishmania donovani; test: Potency index, ratio of dihydroartemisinin IC50 to test compound IC50 for antileishmanial activity against Leishmania donovani 9515 promastigotes incubated for 72 hrs by resazurin dye based assay; type: functional
[7] = tested on: Leishmania donovani; test: Potency index, ratio of artemether IC50 to test compound IC50 for antileishmanial activity against Leishmania donovani 1S promastigotes incubated for 72 hrs by resazurin dye based assay; type: functional
[8] = Selectivity index, ratio of IC50 for CHO cells to IC50 for antileishmanial activity against Leishmania donovani 9515 by resazurin dye based assay; type: toxicity; conditions: hamster, read-out: Ratio IC50
[9] = tested on: Leishmania donovani; test: Potency index, ratio of artesunate IC50 to test compound IC50 for antileishmanial activity against Leishmania donovani 9515 promastigotes incubated for 72 hrs by resazurin dye based assay; type: functional
[10] = tested on: Plasmodium falciparum; test: Antiplasmodial activity against chloroquine-sensitive Plasmodium falciparum NF54 by LDH assay; type: functional, organism-based
[11] = tested on: Leishmania donovani; test: Antileishmanial activity against Leishmania donovani 9515 promastigotes assessed as inhibition of parasite growth incubated for 72 hrs by resazurin dye based assay; type: functional, organism-based; conditions: Leishmania donovani, 9515, 72 h
[12] = tested on: Leishmania donovani; test: Potency index, ratio of dihydroartemisinin IC50 to test compound IC50 for antileishmanial activity against Leishmania donovani 1S promastigotes incubated for 72 hrs by resazurin dye based assay; type: functional
[13] = tested on: Leishmania donovani; test: Potency index, ratio of artemether IC50 to test compound IC50 for antileishmanial activity against Leishmania donovani 9515 promastigotes incubated for 72 hrs by resazurin dye based assay; type: functional
[14] = tested on: Leishmania donovani; test: Antileishmanial activity against Leishmania donovani 1S promastigotes assessed as inhibition of parasite growth incubated for 72 hrs by resazurin dye based assay; type: functional, organism-based
[15] = tested on: CHO; test: Cytotoxicity against CHO cells assessed as reduction in cell viability by MTT assay; type: cell-based; conditions: Cricetulus griseus
[16] = Selectivity index, ratio of IC50 for antileishmanial activity against Leishmania major IR-173 promastigotes to IC50 for antileishmanial activity against Leishmania donovani 9515 promastigotes incubated for 72 hrs by resazurin dye based assay; type: functional
[17] = Selectivity index, ratio of IC50 for antileishmanial activity against Leishmania major IR-173 promastigotes to IC50 for antileishmanial activity against Leishmania donovani 1S promastigotes incubated for 72 hrs by resazurin dye based assay; type: functional

Row | Compound | selectivity ratio [1] | selectivity ratio [2] | IC50 [3] [µM] | IC50 [4] [µM] | Ratio IC50 [5] | Ratio IC50 [6] | Ratio IC50 [7] | selectivity ratio [8] | Ratio IC50 [9] | IC50 [10] [µM] | IC50 [11] [µM] | Ratio IC50 [12] | Ratio IC50 [13] | IC50 [14] [µM] | IC50 [15] [µM] | Ratio IC50 [16] | Ratio IC50 [17]
1 | C[C@@H]1CC[C@H]2C(C)(COC(=O)c3ccc(-c4ccccc4)cc3)O[C@@H]3O[C@@]4(C)CC[C@@H]1[C@]32OO4 (some centres undefined) | 10 | > 36 | 0.0069 | 9.87 | 30 | 30 | 30 | 23 | 30 | 0.0073 | 2.8 | 30 | 30 | 4.42 | > 100 |  | 
2 | C[C@@H]1CC[C@H]2C(C)(COC(=O)c3cccs3)O[C@@H]3O[C@@]4(C)CC[C@@H]1[C@]32OO4 (some centres undefined) | 10 |  | 0.0059 | 9.93 | 30 | 30 | 30 | 9 | 30 | 0.0048 | > 100 | 30 | 30 | 11.5 | > 100 |  | 
3 | Cc1csc(C(=O)OCC2(C)O[C@@H]3O[C@@]4(C)CC[C@H]5[C@H](C)CC[C@@H]2[C@@]35OO4)c1 (some centres undefined) | 24 | > 15 | 0.0071 | 4.26 | 30 | 30 | 30 | 18 | 30 | 0.0072 | 6.48 | 30 | 30 | 5.61 | > 100 |  | 
4 | C[C@@H]1CC[C@H]2C(C)(C=O)O[C@@H]3O[C@@]4(C)CC[C@@H]1[C@]32OO4 (some centres undefined) | 4 | > 39 | 0.0041 | 26.6 |  |  |  | 13 |  | 0.0069 | 2.55 |  |  | 8.07 | > 100 | 3 | 3
5 | C[C@@H]1CC[C@H]2C(C)(COC(=O)c3ccc(F)cc3)O[C@@H]3O[C@@]4(C)CC[C@@H]1[C@]32OO4 (some centres undefined) | 13 | > 12 | 0.0044 | 7.57 |  |  |  | 10 |  | 0.0037 | 8.11 |  |  | 10.1 | > 100 |  | 
